According to patent US20240366624A1, “METHODS AND COMPOSITIONS FOR TREATING THROMBOTIC DISEASE” (Washington University, priority 2023, published 2024):
“Also recorded” adds a separate entry of the source.

Legend:
Ero1α-null platelets = experiment: Platelet aggregation, Ero1α-null platelets; type: cell-based, mouse
Method: FIG. 7(A-L) is an exemplary embodiment of crucial intracellular ERO1α (endoplasmic reticulum oxidoreductase 1a) for platelet activation, aggregation, and thrombus formation in accordance with the present disclosure. FIG. 7A: Ex vivo platelet thrombus formation in a flow chamber assay. Adherent and aggregated platelets were stained with rhodamine-conjugated phalloidin and imaged by confocal microscopy. Representative images (bar, 10 μm). Surface coverage and thrombus volume were measured (mean±SD, n=4). FIG. 7(B-E): Aggregation and ATP secretion of wild type (WT) and Ero1α-null platelets were induced by 0.025 U/mL thrombin, 0.05 μg/mL CRP (collagen-related peptide), 0.5 μM A23187, or 2.5 μM ADP. Platelet aggregation (i) and ATP secretion (ii). FIG. 7F: Ero1α-null platelets were pretreated with 50 μg/mL wtERO1α or wtPDI and then with 0.025 U/mL thrombin. Quantification graphs of aggregation and ATP secretion are presented as the mean±SD (n=3-4). FIG. 7G and FIG. 7H: P-selectin exposure and αIIbβ3 integrin activation of WT and Ero1α-null platelets were analyzed by flow cytometry. The data are presented as the geometric mean fluorescence intensity (MFI) value (mean±SD, n=3-4). FIG. 7I: WT and Ero1α-null platelets were treated with or without 0.025 U/mL thrombin for 1 minute in an aggregometer. The lysates were immunoprecipitated with control IgG or anti-β3 antibodies and subjected to immunoblotting with antibodies against talin1 or β3 and densitometric analysis (mean±SD, n=3). FIG. 7J: WT and Ero1α-null platelets were treated with or without 0.025 U/mL thrombin, followed by transmission electron microscopy. The original magnification was 34 800, and the extension was 313 000. Bar, 500 nm. FIG. 7K and FIG. 7L: Intravital microscopy was performed to determine the effect of 15E9 (1-3 μg/g body weight [BW]) and a blocking anti-PDI (protein disulfide isomerase) antibody (BD34, 3 μg/g BW) on platelet thrombus formation and fibrin generation at the site of laser-induced cremaster arteriolar injury (n=27-40 arterioles in 6 mice per group). The n indicates biological replicates. P values determined by unpaired Student t test (FIG. 7(A-E) and FIG. 7(G-1)), ANOVA and Dunnett test (FIG. 7F), or Mann-Whitney U test (FIG. 7K and FIG. 7L).
FIG. 9(A-C) is an exemplary embodiment of EN460 inhibiting thrombin-induced aggregation of mouse and human platelets in accordance with the present disclosure. […] P values determined by ANOVA and Dunnett's test (FIG. 9(A-B)) or Student's t-test (FIG. 9C).
FIG. 10(A-E) is an exemplary embodiment of 15E9 not affecting platelet activation and aggregation in accordance with the present disclosure. […] P values determined by unpaired Student's t-test (vs. mIgG1). […]

WT mouse platelets = experiment: Platelet aggregation, WT mouse platelets; type: cell-based
Method: FIG. 9(A-C) is an exemplary embodiment of EN460 inhibiting thrombin-induced aggregation of mouse and human platelets in accordance with the present disclosure. (A) Human (FIG. 9A), WT (FIG. 9B), and Ero1α-null (FIG. 9C) platelets were pretreated with EN460, an ERO1α inhibitor, at 1, 3, or 10 μM, and treated with 0.025 U/ml thrombin to induce platelet aggregation. The data represent the mean±SD (n=3). P values determined by ANOVA and Dunnett's test (FIG. 9(A-B)) or Student's t-test (FIG. 9C).
FIG. 10(A-E) is an exemplary embodiment of 15E9 not affecting platelet activation and aggregation in accordance with the present disclosure. […] P values determined by unpaired Student's t-test (vs. mIgG1).
FIG. 18(A-R) is an exemplary embodiment of novel small-molecule inhibitors recapitulating the defect in Ero1α (endoplasmic reticulum oxidoreductase 1a)-null platelets in accordance with the present disclosure. […] After incubation with a different concentration of B12-5, the specific interaction between B12-5 and ERO1α was measured by subtracting the nonspecific binding. The KD value was calculated from the Kon and Koff values. […] P values determined by ANOVA and Dunnett test (FIG. 18(B-E), FIG. 18(1-L), and FIG. 18(O-R) [for B12-5]) or Student t test (FIG. 18M, FIG. 18N, and FIG. 18(O-R) [for BAPTA (1,2-bis(o-aminophenoxy)ethane-N,N,N′,N′-tetraacetic acid)]).

SMILES	Ero1α-null platelet aggregation (Ero1α-null platelets; 10 μM / up to 10 μM)	thrombin- or CRP-induced WT platelet aggregation (WT mouse platelets; 10 μM)	Ero1α-null platelet aggregation (Ero1α-null platelets; 3 μM)	Ero1α-null platelet aggregation (Ero1α-null platelets; 3 to 10 μM)	thrombin-induced aggregation (WT mouse platelets; 3 to 10 μM, mouse platelets)
O=C(CSc1nc(O)cc(O)n1)N1c2ccccc2Sc2ccccc21 [B12-5]	without affecting; also recorded: did not show an additional effect	significantly mitigated	–	–	–
O=C(O)c1cc(N2N=C(C(F)(F)F)/C(=C/c3ccc(-c4ccccc4)o3)C2=O)ccc1Cl [EN460]	–	–	abolished; also recorded: completely blocked	significantly inhibited	abrogated
